# Results as given in patent US20240325370A1, “THERAPEUTIC REGIMENS OF A DEGRADER OF BRD9” (FOGHORN THERAPEUTICS INC., priority 2021, published 2024).
# Where two headings read alike, the source gives them in different places.
# Columns and labels:
# BRD9 [1] = target: T1, BRD9 (Homo sapiens, UniProt Q9H8M2); assay: BRD9 degradation by western blot in synovial sarcoma cells (SYO-1, ASKA); format: cell-based; conditions: for DC50: read-out: Fitted DC50
# T1 sequence (Q9H8M2 1-597): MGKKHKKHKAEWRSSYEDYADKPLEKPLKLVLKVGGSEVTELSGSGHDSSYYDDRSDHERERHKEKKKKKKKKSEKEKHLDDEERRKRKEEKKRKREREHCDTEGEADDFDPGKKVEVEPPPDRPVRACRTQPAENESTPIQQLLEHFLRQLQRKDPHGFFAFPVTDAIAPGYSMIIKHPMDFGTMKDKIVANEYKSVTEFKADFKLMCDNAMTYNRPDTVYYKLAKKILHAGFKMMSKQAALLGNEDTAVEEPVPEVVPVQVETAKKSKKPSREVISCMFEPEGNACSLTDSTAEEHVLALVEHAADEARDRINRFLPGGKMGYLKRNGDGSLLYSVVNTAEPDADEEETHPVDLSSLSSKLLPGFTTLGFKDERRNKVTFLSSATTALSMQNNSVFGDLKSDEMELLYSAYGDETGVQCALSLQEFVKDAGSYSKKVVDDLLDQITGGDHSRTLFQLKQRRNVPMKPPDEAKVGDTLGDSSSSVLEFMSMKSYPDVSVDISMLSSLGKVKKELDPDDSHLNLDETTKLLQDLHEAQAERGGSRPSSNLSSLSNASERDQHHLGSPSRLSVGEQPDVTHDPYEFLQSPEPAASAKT
# Method: Method. Synovial sarcoma cells were plated in 6-well plate at […] cells/well and treated with serial concentrations of BRD9 degrader (10 nM top concentration, diluted 1:3) the next day for two time points at 37° C. Cells were then harvested, washed with cold PBS, and frozen in cell pellets at −80° C. Lysates were prepared by resuspending thawed pellets in 1×RIPA Lysis and Extraction buffer (Thermo Fisher, Cat #89900) with 1× Halt™ Protease and Phosphatase Inhibitor Cocktail, EDTA-free (Thermo Fisher, Cat #78441) and 1:1000 dilution Pierce™ Universal Nuclease for Cell Lysis 25ku (Thermo Fisher, Cat #88700). Lysates were incubated on ice for 10 minutes and then centrifuged in 4° C. at maximum speed (15,000 rpm) for 10 minutes. Samples were then analyzed for total protein using BCA protein quantification assay and diluted to 1 ug/μL with lysis buffer and 1× NuPAGE™ LDS Sample Buffer (4×) (Thermo Fisher, Cat #NP0007) and 1×DTT from 30× stock (Cell Signaling Technologies, Cat #14265S). Samples with 20-25 ug of total protein were loaded into 4-12% Bis-Tris Mini-Gel with 1×MES Running buffer and run at 150V for 45 minutes. Gels were transferred using Trans-Blot® Turbo™ Transfer System (semi-dry) at 25V for 10 minutes (High MW setting) on nitrocellulose blots. Blots were blocked in 5% milk in TBST for 1 hour and probed with BRD9 antibody (Bethyl Labs, Cat #A303-781A, 1:750 for SYO1, and Cell Signaling Technologies, Cat #71232S for ASKA) and beta-Actin antibody (Cell Signaling Technologies, Cat #3700, 1:2000) overnight at 4° C. The next day, blots were washed in TBST 3× and probed with 1:5000 IRDye® 680LT Goat anti-Rabbit IgG Secondary Antibody (LICOR, Cat #926-68021) and 1:10000 IRDye® 800CW Goat anti-Mouse IgG Secondary Antibody (LiCOR, Cat #926-32210) in LiCOR Odyssey® Blocking Buffer (TBS) for 1 hour at room temperature. Blots were washed in TBST 3× and scanned at […] wavelength using LiCOR Odyssey® CLx Imaging System. Western blot signal was quantified using same analyses program included in the same machine. BRD9 signal was quantified by normalizing to beta-actin signal and all samples were normalized to DMSO, set as 100% signal.
# [2] = Interconversion between Enantiomer 1 and Enantiomer 2 in cell medium; format: physicochemical; conditions: Enantiomer 1 dosing, cell medium 37° C.; for Mean peak area ratio of Enantiomer 2 over Enantiomer 1 peak area ratio: 0.2 µM
# Method: For the assessment of interconversion between Enantiomer 1 and Enantiomer 2 in cell medium, the following test was performed. […] At designated time point, aliquot (50 μL) was taken and processed by the addition of 150 μL of acetonitrile containing 0.1% formic acid and internal standard for LC/MS-MS analysis. Peak areas of both Enantiomer 1 and Enantiomer 2 were determined for each sample using a chiral specific analytical method.
# BRD9 [3] = target: T1, BRD9; assay: BRD9 degradation by western blot in synovial sarcoma cells (SYO-1, ASKA); format: cell-based; conditions: 30 minutes, up to 10 µM
# BRD9 [4] = target: T1, BRD9; assay: Pharmacodynamic activity in SYO-1 xenograft model (tumor BRD9 western blot); format: in vivo, mice; set-up: from tissue; host or cells: SYO-1 xenograft tumours in BALB/c nude or NOD SCID mice; conditions: SYO-1 xenograft, BALB/c Nude mice; single dose i.v. (Table 6)
# Method: Method. The SYO-1 tumor cells were maintained in vitro as adherent cells in Dulbecco's Modified Eagle Medium (DMEM) supplemented with 10% fetal bovine serum at 37° C. in an atmosphere of 5% CO2 in air. The cells growing in an exponential growth phase were harvested and counted for tumor inoculation. BALB/c Nude mice (Shanghai Lingchang biological science) were inoculated subcutaneously on the right flank with (5×10^6) in 0.1 mL of phosphate buffered saline (PBS). The treatment-(described in table 6)—was started on day 19 after tumor inoculation, when the average tumor size reached 499 mm^3.
# Mice were treated with racemic D1, 1 mg/kg, i.p. for 4 weeks, mice were euthanized, and tumors collected 1, 4, 8, 24, 48 and 72-hour post last dose. Tumors were lysed with 1×RIPA lysis buffer (Boston BioProducts, BP-115D) with protease and phosphatase protein inhibitor (Roche Applied Science #04906837001 & 05892791001). Equal amount of lysate (30 ug) were loaded in 4-12% Bis-Tris Midi Protein Gels in 1×MOPS buffer; samples ran at 120 V for 120 min. Proteins was transferred to membrane (NC) with TransBlot at 250 mA for 150 minute, then membranes were blocked with Odyssey Blocking buffer for 1 hour at room temperature. Membranes were hybridized overnight in cold room with primary antibodies. Images acquired using Li-COR imaging system (Li-COR Biotechnology, Lincoln, Nebraska).
# Further study. The other study examined a range of compound D1 dose levels (0.05, 0.25, 1 or 5 mg/kg) formulated in a vehicle of 20% SBECD for tumor BRD9 protein levels up to 144 hours post dose. […] BRD9 protein levels were still depleted by 83.4% and 73.2% at 120 hours (5 days) and 144 hours (6 days), respectively, after a single IV administration of 5 mg/kg of compound D1, which corresponds to ˜2.5 mg/kg of compound S-D1.
smiles,measurement,setting,value
"COc1cc(-c2cn(C)c(=O)c3cnc(N4CCC4)cc23)cc(OC)c1CN1CCC(CN2CCC3(CC2)CN(c2ccc4c(c2)C(=O)N([C@@H]2CCC(=O)NC2=O)C4)C3)CC1 (single isomer, unassigned) [Enantiomer 1]",DC50,"BRD9 [1]; ASKA, 0.5 h",> 10 nM
same,DC50,"BRD9 [1]; ASKA, 2 h",0.38 nM
same,DC50,"BRD9 [1]; SYO-1, 1 h",2.8 nM
same,DC50,"BRD9 [1]; SYO-1, 6 h",0.066 nM
same,potency in degradation of endogenous BRD9 protein,"BRD9 [1]; two synovial sarcoma cell lines, early time point",largely inactive or with much reduced degradation potency
same,Mean peak area ratio of Enantiomer 2 over Enantiomer 1 peak area ratio,[2]; 0 h,0.0
same,Mean peak area ratio of Enantiomer 2 over Enantiomer 1 peak area ratio,[2]; 0.5 h,0.0
same,Mean peak area ratio of Enantiomer 2 over Enantiomer 1 peak area ratio,[2]; 2 h,0.13
same,Mean peak area ratio of Enantiomer 2 over Enantiomer 1 peak area ratio,[2]; 6 h,0.43
same,% Enantiomer 2,[2]; 2 h,12%
same,% Enantiomer 2,[2]; 6 h,30%
same,BRD9 degradation activity,BRD9 [3],no discernable activity
same,Pharmacodynamic activity: tumor BRD9 protein level by western blot,BRD9 [4],inactive and did not degrade BRD9 protein
